Results from patent US20230149338A1, “DIAGNOSIS AND TREATMENT OF ADDICTION” (The Regents of the University of California, priority 2020, published 2023).
“Also recorded” adds a separate entry of the source.

Legend:
Assay type in all cases: in vivo, rat
[1] = system: Sprague-Dawley rats; assay: Mechanical nociceptive von Frey test, passive oxycodone injection model
Procedure: (§1) The rats were subjected to microbiome depletion using a cocktail of non-absorbable antibiotics in their drinking water. Control rats were given regular drinking water. […] Withdrawal was precipitated at the end of the injection paradigm with a subcutaneous injection of naloxone (1 mg/kg) in the saline (SAL) group, withdrawal (WD) group, and antibiotic-treated withdrawal (WD+ABX) group. For the intoxication state, the rats were given a saline injection at the same time as the naloxone group. The OXY group included animals that were not treated with antibiotics in the intoxicated state, and the OXY+ABX group included animals that were treated with antibiotics in the intoxicated state. […] The rats were sacrificed and perfused 90 min after the naloxone injection in the WD, WD+ABX, and SAL groups and after 90 min following the saline injection (matched with the naloxone injection time point) in the OXY and OXY+ABX groups. Brains were then cryopreserved and stained for Fos expression.
Mechanical nociception, reflected by hindpaw withdrawal thresholds, was determined by an observer who was blind to the experimental groups using von Frey filaments that ranged from 3.63 to 281.838 g as previously reported (Dixon 1965, Kononoff et al. 2018). A test session began after 10 min of habituation to the testing environment immediately following the subcutaneous injection of naloxone (WD, WD+ABX, and SAL groups) or saline (OXY and OXY+ABX groups). […] The 50% paw withdrawal threshold was determined by the formula Xf+kδ, where Xf is the last von Frey filament applied, k is the Dixon value that corresponded to the response pattern, and […] is the mean difference between stimuli. Once the threshold was determined for the left hindpaw, the same testing procedure was repeated for the right hindpaw after 5 min. Paw withdrawal thresholds were recorded at baseline, during intoxication, and during precipitated withdrawal.

[2] = system: Sprague-Dawley rats; assay: Withdrawal score after naloxone-precipitated withdrawal
Procedure: as §1
To precipitate withdrawal, the rats were subcutaneously injected with naloxone and then placed in a Plexiglas observation chamber.
Withdrawal symptoms were categorized using a scale that was modified from (Gellert et al. 1978) and (Cicero et al. 2002). Graded signs of withdrawal were scored as the following: wet dog shakes (1 or 2 shakes=2; 3 or 4 shakes=3; […] shakes=4) and escape attempts (2-4 attempts=1; 5-9 attempts=2; ≥10 attempts=3). The following behaviors were measured per instance: abnormal posture/writhing, teeth chattering, ptosis (drooping eyelids), diarrhea, profuse salivation, urination, swallowing movements, and chromodacyorrhea (red tears). The total withdrawal score was calculated as the sum of all of the individual withdrawal scores. Immediately after withdrawal testing, all of the rats were returned to standard cages and given unrestricted access to food and water.

[3] = system: microbiome; assay: 16S RNA sequencing of feces: alpha diversity and phyla; settings: post-treatment
Procedure: (§2) At each time point, approximately two fecal pellets were harvested and put directly into a cryovial, which was placed on powered dry ice. The pellets were then stored at −80° C. until processing for sequencing. At the time of DNA extraction, feces were thawed and extracted with the Qiagen DNeasy powersoil kit. The samples are then amplified by PCR in triplicate and then pooled. The 16S V4 gene was amplified using universal primers ([…]). Each sample was normalized to 240 ng per sample and purified. After purification, the A260/A280 ratio of the final pool was recorded to ensure purity, with a tolerance range of 1.8-2.0. The barcoded amplicons from all of the samples were normalized, pooled to construct the sequencing library, and sequenced using an Illumina MiSeq sequencer. The sequencing primers were the following: […]
(§3) After sequencing, the raw files were prepared, filtered for quality, and demultiplexed. Operational taxonomic units (OTUs) were selected using open-reference OUT picking based on 97% sequence similarity to the Greengenes database. Taxonomy assignment and rarefaction were performed using Qiita with 15,000 reads per sample (Gonzalez et al. 2018). The alpha diversity was measured using both the Shannon diversity index and Chao1 index and compared between baseline and treatment conditions. […]

[4] = system: Bacteroidetes; assay: 16S RNA sequencing of feces: Bacteroidetes abundance
Procedure: as §2, §3

[5] = system: Firmicutes; assay: 16S RNA sequencing of feces: Firmicutes abundance
Procedure: as §2, §3

[6] = system: Fos+ neurons; assay: Fos immunohistochemistry, quantification of Fos+ neuronal ensembles
Procedure: Two hours later, the rats were injected with either saline (OXY and OXY+ABX groups) or 1 mg/kg naloxone (WD, WD+ABX, and SAL groups) to maintain intoxication or precipitate withdrawal, respectively. Brains were collected 90 min after the injection of naloxone or saline to produce both intoxicated and withdrawal groups. The rats were deeply anesthetized and perfused with 100 mL of phosphate-buffered saline (PBS) followed by 100 mL of 4% paraformaldehyde (PFA). Brains were postfixed in 4% PFA overnight and transferred to 30% sucrose in a PBS/0.1% azide solution at 4° C. for 2 days. Brains were frozen in powdered dry ice for 15-30 s and then sectioned coronally at 40 μm thickness throughout the brain using a cryostat. Representative sections were quantified from the following regions at the following coordinates according to the (Paxinos 2007) rat brain atlas: PVT (bregma −3.36), LHb (bregma −3.36), BLA (bregma −3.12), CeA (bregma −3.12), PAG (bregma −5.76), anterior agranular insula bregma (+3.00), BNST (bregma 0.00), and LC (bregma −9.16).
The sections were washed in PBS for 10 min three times and then incubated in 1% H2O2/PBS for 20 min to quench endogenous peroxidase activity. The sections were then rinsed for 10 min three times in PBS and incubated in blocking solution (PBS+0.3% TritonX-100, 1 mg/mL bovine serum albumin, and 5% normal donkey serum) for 1 h. The sections were then incubated for 24 h at room temperature with rabbit monoclonal anti-Fos antibody (Cell Signaling Technologies, catalog no. 2250, RRID: AB_2247211) diluted 1:1000 in PBS/0.5% Tween-20 and 5% normal donkey serum. Following incubation with the primary antibody, the sections were washed for 10 min three times in PBS and incubated for 2 h in undiluted rabbit ImmPress horseradish peroxidase reagent (Vector Laboratories, catalog no. MP-7451, RRID: 2631198).
The sections were then washed in PBS for 10 min three times and then developed for 6 min in Vector peroxidase 3,3′-diaminobenzidine (DAB) substrate (Vector Laboratories, catalog no. SK-4100, RRID: 2336382) enhanced with nickel chloride. Following rinses in PBS for 10 min three times, the sections were mounted on Fisher Super Frost Plus slides, air dried, and coverslipped with PVA-DABCO (Sigma Aldrich, catalog no. 10981). Following coverslipping, images were acquired using a Keyence BZX700 fluorescent microscope and analyzed using Fiji software.
Quantitative analysis to obtain unbiased estimates of the total number of Fos+positive cell bodies was performed using Fiji software with the Analyze Particles module (Schindelin et al. 2012). Slides were imaged on a Keyence BZX700 slide scanner and stitched at 2[…] magnification. Three sections were bilaterally analyzed for each rat and then averaged per animal (counted as n=1). A total of 4-6 animals of each sex per group were analyzed. Cell numbers were normalized to the area of the region of interest.

[7] = oxycodone + naloxone withdrawal vs SAL and OXY groups
[8] = oxycodone + naloxone withdrawal vs SAL group
[9] = withdrawal compared with the control group

## COc1ccc2c3c1O[C@H]1C(=O)CC[C@@]4(O)[C@@H](C2)N(C)CC[C@]314 [oxycodone, Oxycodone]
[1]; WD and WD+ABX groups, naloxone-precipitated withdrawal
  decrease in pain thresholds: 64%
[1]; oxycodone 2 mg/kg s.c. every 12 h, intoxicated animals vs saline, withdrawal groups and baseline
  von Frey pain threshold during oxycodone intoxication: significantly higher von Frey scores; also recorded: higher pain thresholds
[1]; oxycodone-dependent rats, naloxone 1 mg/kg precipitated withdrawal, vs saline, intoxication, baseline
  von Frey pain threshold during withdrawal: significantly lower von Frey scores; also recorded: lower pain thresholds
[2]; WD and WD+ABX groups
  increase in withdrawal signs: 1420%
[2]; oxycodone intoxication
  withdrawal score, intoxicated vs saline animals: No significant difference in withdrawal scores
[2]; oxycodone-dependent rats, naloxone-precipitated withdrawal, vs saline and intoxicated animals
  total withdrawal score during withdrawal: significantly higher withdrawal scores
[3]
  alpha diversity, Chao1 test, OXY vs SAL group: no difference in alpha diversity
[4]; OXY group or OXY+ABX group compared with the matched SAL group
  change in Bacteroidetes after treatment: −19.01%
[4]; post-treatment, OXY+ABX vs water and OXY groups, OXY vs SAL
  Bacteroidetes at the phylum level, group comparison: No difference in Bacteroidetes
[5]; OXY group or OXY+ABX group compared with the matched saline group
  change in Firmicutes after treatment: 38.5%
[5]; post-treatment, OXY+ABX vs SAL and OXY groups, OXY vs SAL
  Firmicutes at the phylum level, group comparison: No difference in Firmicutes
[6]; oxycodone + naloxone withdrawal vs OXY and SAL groups
  number of Fos+ neurons, BLA, WD group: significant decrease in Fos+ neurons compared with the OXY group but no difference from the SAL group
[6]; [7]
  number of Fos+ neurons, BNST, WD group: significant increase in the number of Fos+ neurons; also recorded: significant decrease in the number of Fos+neurons compared with the WD and WD+ABX groups
  number of Fos+ neurons, LHb, WD group: significant increase in the number of Fos+neurons
  number of Fos+ neurons, PAG, WD group: significant increase in Fos+ neurons
  number of Fos+ neurons, PVT, WD group: significant increase in Fos+ positive neurons; also recorded: significant decrease in the number of Fos+ neurons in the SAL group compared with the WD and WD+ABX groups
  number of Fos+ neurons, anterior insula, WD group: significant increase in the number of Fos+ neurons
[6]; [8]
  number of Fos+ neurons, CeA, WD group: significant difference between the SAL and WD groups
  number of Fos+ neurons, LC, WD group: significant difference between the SAL group and the WD and WD+ABX groups
[6]; [9]
  increase in the number of Fos+ neurons, LC: 475%
  increase in the number of Fos+ neurons, LHb: 712%
  increase in the number of Fos+ neurons, PVT: 289%
[6]; withdrawal, antibiotic-treated animals compared with the control group
  increase in the number of Fos+ neurons, lateral BNST: 1272%
